Source: patent publication US20250163091A1, “FUNCTIONALIZED HUMAN MILK OLIGOSACCHARIDES AND METHODS FOR PRODUCING THEM” (The Regents of the University of California, priority 2022, published 2025)

Assay: Assays for synthesizing FDS-LNTβNHCbz (48) from S-LNF-IIβNHCbz (37)
Format: biochemical
Settings: 30° C., analyzed by HRMS at 24 hours and 72 hours
Description: Assays for synthesizing FDS-LNTβNHCbz (48) from S-LNF-IIβNHCbz (37). Assays were carried out at 30° C. in a total volume of 10 μL in Tris-HCl buffer (100 mM, pH 7.5) containing (10 mM), CMP-Neu5Ac (15 mM), MgCl2 (20 mM), MBP-Δ50hST6GALNAC V_ext20-Hiss ([…]), MBP-Δ50hST6GALNAC V_V99M-His6, or MBP-Δ50hST6GALNAC V_V99M_ext20-His6. The reactions were analyzed by HRMS at 24 hours and 72 hours. The formation of FDS-LNTβNHCbz (48) was observed (FIGS. 71A and 71B), and the conversion was around 40-50% after 72 h incubation using MBP-Δ50hST6GALNAC V_ext20-His6.

MBP-Δ50hST6GALNAC V_V99M-His6: V99M mutant of recombinant human ST6GALNAC V with N-terminal MBP and C-terminal His6
formation of FDS-LNTβNHCbz (48): formation of the target product was also observed
